{
  "source": "patent US20040082635A1",
  "about": "“Fused cyclic compounds and medicinal use thereof” (priority 2001, published 2004)",
  "note": "Structures can show the parent of a compound that is named as a salt.",
  "data": [
    {"biological_target": "T1, HCV polymerase (Hepatitis C virus genotype 1b, UniProt P26663)", "T1 construct": "a region encoding NS5B (591 amino acids; J Virol 1991 Mar, 65(3), 1105-13) was amplified by PCR; 6 His (N); made in house; host or cells: Escherichia coli", "T1 sequence (P26663 2420-3010)": "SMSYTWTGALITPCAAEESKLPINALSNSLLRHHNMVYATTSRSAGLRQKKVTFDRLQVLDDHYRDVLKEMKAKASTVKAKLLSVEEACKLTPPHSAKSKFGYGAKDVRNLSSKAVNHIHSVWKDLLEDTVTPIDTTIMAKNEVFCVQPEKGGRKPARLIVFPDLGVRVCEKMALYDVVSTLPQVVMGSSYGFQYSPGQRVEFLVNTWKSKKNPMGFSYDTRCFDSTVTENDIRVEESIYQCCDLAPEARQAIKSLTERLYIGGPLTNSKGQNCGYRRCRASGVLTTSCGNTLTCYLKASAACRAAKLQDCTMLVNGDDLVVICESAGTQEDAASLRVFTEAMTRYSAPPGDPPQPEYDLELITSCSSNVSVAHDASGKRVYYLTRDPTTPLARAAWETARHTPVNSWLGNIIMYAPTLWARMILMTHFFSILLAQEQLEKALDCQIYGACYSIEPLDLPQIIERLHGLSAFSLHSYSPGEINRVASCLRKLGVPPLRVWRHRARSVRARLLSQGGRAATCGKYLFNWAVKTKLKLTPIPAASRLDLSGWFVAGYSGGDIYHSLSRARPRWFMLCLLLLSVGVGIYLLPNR", "experiment": "biochemical", "details": "read-out: HCV polymerase inhibitory activity IC50", "units": {"IC50": "nM"}, "values": [
      {"smiles": "CC(C)=CCOc1ccccc1Oc1ccc(-c2nc3cc(C(=O)O)ccc3n2C2CCCCC2)cc1", "note": "[Example 112, 1-cyclohexyl-2-{4-[2-(3-methyl-2-butenyloxy)phenoxy]phenyl}-benzimidazole-5-carboxylic acid]", "IC50": 110},
      {"smiles": "CNC(=O)c1nc(-c2ccc(F)cc2)c(COc2ccc(-c3nc4cc(C(=O)O)ccc4n3C3CCCCC3)c(F)c2)s1", "note": "[Example 429, 2-{4-[{4-(4-fluorophenyl)-2-(methylcarbamoyl)thiazol-5-yl}methoxy]-2-fluorophenyl}-1-cyclohexylbenzimidazole-5-carboxylic acid hydrochloride]", "IC50": 17},
      {"smiles": "CCN(CC)C(=O)c1ccc(-c2ccc(Cl)cc2)c(COc2ccc(-c3nc4cc(C(=O)O)ccc4n3C3CCCCC3)c(F)c2)c1", "note": "[Example 284, 2-{4-[2-(4-chlorophenyl)-5-diethylcarbamoylbenzyloxy]-2-fluorophenyl}-1-cyclohexylbenzimidazole-5-carboxylic acid]", "IC50": 14},
      {"smiles": "CC(C)CCOc1ccccc1Oc1ccc(-c2nc3cc(C(=O)O)ccc3n2C2CCCCC2)cc1", "note": "[Example 114, 1-cyclohexyl-2-[4-(2-isopentyloxyphenoxy)phenyl]benzimidazole-5-carboxylic acid]", "IC50": 560},
      {"smiles": "O=C(O)c1ccc2c(c1)nc(-c1ccc(OCc3cccc4ccccc34)cc1)n2C1CCCCC1", "note": "[Example 86, 1-cyclohexyl-2-[4-(1-naphthyl)methoxyphenyl]benzimidazole-5-carboxylic acid]", "IC50": 130},
      {"smiles": "COCc1ccc(-c2ccc(Cl)cc2COc2ccc(-c3nc4cc(C(=O)O)ccc4n3C3CCCCC3)cc2)cc1", "note": "[Example 295, 2-{4-[3-chloro-6-(4-methoxymethylphenyl)benzyloxy]phenyl}-1-cyclohexylbenzimidazole-5-carboxylic acid]", "IC50": 45},
      {"smiles": "O=C(O)c1ccc2c(c1)nc(-c1ccc(OCc3cc(N4CCOC4=O)ccc3-c3ccc(Cl)cc3)cc1F)n2C1CCCCC1", "note": "[Example 423, 2-{4-[2-(4-chlorophenyl)-5-(2-oxooxazolidin-3-yl)benzyloxy]-2-fluorophenyl}-1-cyclohexylbenzimidazole-5-carboxylic acid hydrochloride]", "IC50": 17},
      {"smiles": "CC(C)(C)c1ccc(COc2ccc(-c3nc4cc(C(=O)O)ccc4n3C3CCCC3)cc2)cc1", "note": "[Example 43, 2-[4-(4-tert-butylbenzyloxy)phenyl]-1-cyclopentylbenzimidazole-5-carboxylic acid]", "IC50": 580},
      {"smiles": "O=C(O)c1ccc2c(c1)nc(-c1ccc(OCc3cc(Cl)cc(Cl)c3)cc1)n2C1CCCCC1", "note": "[Example 81, 1-cyclohexyl-2-[4-(3,5-dichlorobenzyloxy)phenyl]benzimidazole-5-carboxylic acid]", "IC50": 180},
      {"smiles": "CN(C)C(=O)c1ccc(-c2ccc(Cl)s2)c(COc2ccc(-c3nc4cc(C(=O)O)ccc4n3C3CCCCC3)cc2)c1", "note": "[Example 362, 2-{4-[2-(5-chlorothiophen-2-yl)-5-(dimethylcarbamoyl)benzyloxy]-phenyl}-1-cyclohexylbenzimidazole-5-carboxylic acid hydrochloride]", "IC50": 20},
      {"smiles": "NC(=O)c1ccc(-c2ccc(Cl)cc2)c(COc2ccc(-c3nc4cc(C(=O)O)ccc4n3C3CCCCC3)c(F)c2)c1", "note": "[Example 270, 2-{4-[3-carbamoyl-6-(4-chlorophenyl)benzyloxy]-2-fluorophenyl}-1cyclohexylbenzimidazole-5-carboxylic acid hydrochloride]", "IC50": 12},
      {"smiles": "CN(c1ccc(-c2ccc(Cl)cc2)c(COc2ccc(-c3nc4cc(C(=O)O)ccc4n3C3CCCCC3)c(F)c2)c1)S(C)(=O)=O", "note": "[Example 456, 2-[4-{2-(4-chlorophenyl)-5-[N-methyl-N-(methylsulfonyl)amino]benzyloxy}-2-fluorophenyl]-1-cyclohexylbenzimidazole-5-carboxylic acid hydrochloride]", "IC50": 17},
      {"smiles": "O=C(O)c1ccc2c(c1)nc(-c1ccc(OCc3cc(OCC(=O)N4CCC(O)CC4)ccc3-c3ccc(Cl)cc3)cc1)n2C1CCCCC1", "note": "[Example 343]", "IC50": 17},
      {"smiles": "O=C(O)c1ccc2c(c1)nc(-c1ccc(Oc3cccc(OCC(=O)N4CCCCC4)c3)cc1)n2C1CCCCC1", "note": "[Example 197, 1-cyclohexyl-2-{4-[3-(piperidinocarbonylmethoxy)phenoxy]-phenyl}benzimidazole-5-carboxylic acid]", "IC50": 110},
      {"smiles": "O=C(O)c1ccc2c(c1)nc(-c1ccc(OCc3cc(N4CCCS4(=O)=O)c(F)cc3-c3ccc(Cl)cc3)cc1F)n2C1CCCCC1", "note": "[Example 449, 2-[4-{2-(4-chlorophenyl)-4-fluoro-5-(1,1-dioxoisothiazolidin-2-yl)benzyloxy}-2-fluorophenyl]-1-cyclohexylbenzimidazole-5-carboxylic acid hydrochloride]", "IC50": 25},
      {"smiles": "COC(=O)c1ccc2c(c1)nc(-c1ccc(OCc3cc(C(=O)N(C)C)ccc3-c3ccc(Cl)cc3)cc1F)n2C1CCCCC1", "note": "[Example 303, methyl 2-{4-[2-(4-chlorophenyl)-5-(dimethylcarbamoyl)benzyloxy]-2-fluorophenyl}-1-cyclohexylbenzimidazole-5-carboxylate]", "IC50": 100},
      {"smiles": "O=C(O)c1ccc(C(Oc2ccc(-c3nc4cc(C(=O)O)ccc4n3C3CCCCC3)c(F)c2)c2ccc(C(=O)O)cc2)cc1", "note": "[Example 312, 2-{4-[bis(4-carboxyphenyl)methoxy]-2-fluorophenyl}-1-cyclohexylbenzimidazole-5-carboxylic acid]", "IC50": 23},
      {"smiles": "CN(C)C(=O)c1ccc(-c2cccc(F)c2)c(COc2ccc(-c3nc4cc(C(=O)O)ccc4n3C3CCCCC3)cc2)c1", "note": "[Example 361, 2-{4-[5-(dimethylcarbamoyl)-2-(3-fluorophenyl)benzyloxy]phenyl}-1-cyclohexylbenzimidazole-5-carboxylic acid hydrochloride]", "IC50": 28},
      {"smiles": "O=C(O)c1ccc2c(c1)nc(-c1ccc(Oc3cccc(OCc4ccnc(Cl)c4)c3)cc1)n2C1CCCCC1", "note": "[Example 227, 2-{4-[3-{(2-chloro-4-pyridyl)methoxy}phenoxy]phenyl}-1-cyclohexylbenzimidazole-5-carboxylic acid]", "IC50": 45},
      {"smiles": "CCN(c1ccc(-c2ccc(Cl)cc2)c(COc2ccc(-c3nc4cc(C(=O)O)ccc4n3C3CCCCC3)c(F)c2)c1)S(C)(=O)=O", "note": "[Example 461, 2-[4-{2-(4-chlorophenyl)-5-[N-ethyl-N-(methylsulfonyl)amino]-benzyloxy}-2-fluorophenyl]-1-cyclohexylbenzimidazole-5-carboxylic acid hydrochloride]", "IC50": 21},
      {"smiles": "O=C(O)c1ccc2c(c1)nc(-c1ccc(OCc3cc(C4=NOS(=O)N4)ccc3-c3ccc(Cl)cc3)cc1F)n2C1CCCCC1", "note": "(centres unmarked) [Example 375, 2-{4-[2-(4-chlorophenyl)-5-(2-oxo-3H-1,2,3,5-oxathiadiazol-4-yl)benzyloxy]-2-fluorophenyl}-1-cyclohexylbenzimidazole-5carboxylic acid hydrochloride]", "IC50": 12},
      {"smiles": "Cc1nc(-c2ccc(S(C)(=O)=O)cc2)c(COc2ccc(-c3nc4cc(C(=O)O)ccc4n3C3CCCCC3)cc2)s1", "note": "[Example 217, 1-cyclohexyl-2-{4-[{4-(4-methanesulfonylphenyl)-2-methyl-5-thiazolyl}methoxy]phenyl}benzimidazole-5-carboxylic acid]", "IC50": 58},
      {"smiles": "O=C(O)c1ccc2c(c1)nc(-c1ccc(OCCCCCc3ccccc3)cc1)n2C1CCCCC1", "note": "[Example 98, 1-cyclohexyl-2-[4-(5-phenylpentyloxy)phenyl]benzimidazole-5-carboxylic acid]", "IC50": 300},
      {"smiles": "CN(C)C(=O)c1ccc(C(Oc2ccc(-c3nc4cc(C(=O)O)ccc4n3C3CCCCC3)c(F)c2)c2ccc(F)cc2)cc1", "note": "(centres unmarked) [Example 326, 2-{4-[(4-fluorophenyl){4-(dimethylaminocarbonyl)phenyl}methoxy]-2-fluorophenyl}-1-cyclohexylbenzimidazole-5-carboxylic acid]", "IC50": 18},
      {"smiles": "O=C(O)c1ccc2c(c1)nc(-c1ccc(OC[C@@H]3CCCN3Cc3ccccc3)cc1)n2C1CCCCC1", "note": "[Example 165, 2-{4-[{(2S)-1-benzyl-2-pyrrolidinyl}methoxy]phenyl}-1-cyclohexyl-benzimidazole-5-carboxylic acid hydrochloride]", "IC50": 580},
      {"smiles": "CCCOc1ccccc1Oc1ccc(-c2nc3cc(C(=O)O)ccc3n2C2CCCCC2)cc1", "note": "[Example 110, 1-cyclohexyl-2-[4-(2-propoxyphenoxy)phenyl]benzimidazole-5-carboxylic acid]", "IC50": 240},
      {"smiles": "Cc1noc(C)c1COc1ccc(-c2nc3cc(C(=O)O)ccc3n2C2CCCC2)cc1", "note": "[Example 51, 1-cyclopentyl-2-{4-[(3,5-dimethyl-4-isoxazolyl)methoxy]phenyl}-benzimidazole-5-carboxylic acid]", "IC50": 1000},
      {"smiles": "O=C(O)c1ccc2c(c1)nc(-c1ccc(OC(Cc3ccccc3)Cc3ccccc3)cc1)n2C1CCCCC1", "note": "[Example 90, 1-cyclohexyl-2-[4-(dibenzylmethoxy)phenyl]benzimidazole-5-carboxylic acid]", "IC50": 200},
      {"smiles": "CSc1ccc(-c2ccc(Cl)cc2)c(COc2ccc(-c3nc4cc(C(=O)O)ccc4n3C3CCCCC3)cc2)c1", "note": "[Example 297, 2-{4-[2-(4-chlorophenyl)-5-methylthiobenzyloxy]phenyl}-1-cyclohexylbenzimidazole-5-carboxylic acid]", "IC50": 22},
      {"smiles": "CC(C)=CCCOc1cccc(Oc2ccc(-c3nc4cc(C(=O)O)ccc4n3C3CCCCC3)cc2)c1", "note": "[Example 163, 1-cyclohexyl-2-{4-[3-(4-methyl-3-pentenyloxy)phenoxy]phenyl}-benzimidazole-5-carboxylic acid]", "IC50": 150},
      {"smiles": "O=C(O)c1ccc2c(c1)nc(-c1ccc(OCc3ccc(C(=O)NCCO)cc3-c3ccc(Cl)cc3)cc1)n2C1CCCCC1", "note": "[Example 355, 2-{4-[2-(4-chlorophenyl)-4-{(2-hydroxyethyl)carbamoyl}-benzyloxy]phenyl}-1-cyclohexylbenzimidazole-5-carboxylic acid hydrochloride]", "IC50": 15},
      {"smiles": "CN(C)C(=O)c1ccc(-c2ccc(Cl)cc2)c(COc2ccc(-c3nc4cc(C(=O)O)ccc4n3C3CCCC3)c(F)c2)c1", "note": "[Example 410, 2-{4-[2-(4-chlorophenyl)-5-(dimethylcarbamoyl)benzyloxy]-2-fluorophenyl}-1-cyclopentylbenzimidazole-5-carboxylic acid hydrochloride]", "IC50": 18}
    ]}
  ]
}
